Series [1] in a line: physchem. The class given is physicochemical. The conditions noted are these: for solubility thermodynamic: Equilibrium solubility. From the text: The solubilities were equilibrium solubilities measured by a saturated solution method well known to those skilled in the art.
Series [2] can be described thus: Dissolution, free base precipitation and tonicity on preparation of formulations. The class given is physicochemical. Particulars: for Dissolution: added to citrate buffer solution; for Dissolution / Dissolution in water for injection / free base precipitation: monohydrochloride; for Dissolution in water for injection / free base precipitation: unbuffered water for injection, before pH adjustment. On the procedure:
With regard to the process for producing the stable pharmaceutical composition according to the inventions, preferably the citric acid and sodium hydroxide is first dissolved in some water for injection to form a solution of the desired pH. The nicardipine HCI and sorbitol are then added and dissolved in this solution of controlled pH and the resulting solution made to volume with the remainder of the water for injection.
A. In an initial attempt to formulate a pharmaceutical composition of nicardipine hydrochloride suitable for parenteral administration employing conventional techniques well known in the pertinent art, 1 mg of nicardipine hydrochloride was dissolved in water for injection. To this was admixed 6 mg of sodium chloride and a sufficient amount of hydrochloric acid to give a solution having a pH of 3 5. This solution was then made up to volume with water for injection, i.e., to 1 ml. The resulting composition was packaged in an ampule and sterilized by autoclaving.
B. Then, in a following attempt to formulate a pharmaceutical composition of nicardipine hydrochloride for parenteral administration employing conventional techniques well known in the pertinent art, 1 mg of nicardipine hydrochloride together with about 50 mg of the non-chloride, saccharide compound, sorbitol, were dissolved in a portion of water for injection. Sufficient amounts of concentrated hydrochloric acid was added to produce a solution of pH 3.5 and the composition was made to volume with the remainder of the water for injection, i.e. to 1 ml. The resulting composition was packaged in an ampule and sterilized by autoclaving.
The solution was made up to volume, i.e 1 ml. with the remainder of the water for injection. This solution was then filled into ampules and terminally sterilized by autoclaving.

As usually defined, the solubility (thermodynamic) is solubility found after equilibrating the solid with the medium. With `COC(=O)C1=C(C)NC(C)=C(C(=O)OCCN(C)Cc2ccccc2)C1c1cccc([N+](=O)[O-])c1.Cl` (stereo not shown) [Nicardipine Hydrochloride, 2-(Benzylmethylamino)ethyl methyl 1,4-dihydro-2,6-dimethyl-4-(m-nitrophenyl)-3,5-pyridine-dicarboxylate monohydrochloride], in series [1], the “Aqueous solubility as a function of pH” value was “reduction in the aqueous solubility”. In addition, the solubility (thermodynamic) turned out to be 2940 µg/mL in series [1] (water, pH 3.05, water); 3280 µg/mL in series [1] (water, pH 3.45, water); 2950 µg/mL in series [1] (water, pH 4.06, water); 2350 µg/mL in series [1] (water, pH 4.24, water); 850 µg/mL in series [1] (water, pH 4.68, water); 360 µg/mL in series [1] (water, pH 5.05, water). This compound showed a solubility (thermodynamic) in series [1] (water, pH 6.21, water) of 25 µg/mL. In addition, the Equilibrium solubility in series [1] (water, pH 4.06) came to 5160 µg/mL. For the same compound, the Dissolution result in series [2] (listed as Nicardipine HCl) is “very easy”; in series [2], “rapid and complete dissolution”. In addition, the “Precipitation of free base” value in series [2] (dissolved in buffer solution) is “No precipitation of free base was observed”. Also, in series [2] (dissolved in water, before buffer addition or unbuffered), the “Temperature that can be required for dissolution” value was 60-70 °C. Besides, in series [2] (sodium chloride increased to give an isotonic solution), the “Dissolution of required dose strength (1 mg per ml)” value was “failure to dissolve sufficient nicardipine hydrochloride”. The figures for the “Dissolution in water for injection / free base precipitation” value in series [2] (listed as Nicardipine HCl) and in series [2] were “difficult” and “formation of nicardipine free base which precipitates from solution”, respectively.

The record behind these values is patent US5164405A, “Nicardipine pharmaceutical composition for parenteral administration” (Syntex (U.S.A.) Inc., priority 1990, dated 1992).
